In BindingDB's records for doi:10.1021/jm0496335 (2005):
Values joined by “and” are separate entries in the source; they are usually repeats but may differ in a detail not shown here. Equal values may be shown once.

Target: Somatostatin receptor type 2 (Mus musculus, UniProt P30875)
Assay: Inhibition of [125I][Leu8,D-Trp22,[…]]somatostatin-28 binding to somatostatin receptor 2

Somatostatin receptor type 2, sequence (P30875 whole entry): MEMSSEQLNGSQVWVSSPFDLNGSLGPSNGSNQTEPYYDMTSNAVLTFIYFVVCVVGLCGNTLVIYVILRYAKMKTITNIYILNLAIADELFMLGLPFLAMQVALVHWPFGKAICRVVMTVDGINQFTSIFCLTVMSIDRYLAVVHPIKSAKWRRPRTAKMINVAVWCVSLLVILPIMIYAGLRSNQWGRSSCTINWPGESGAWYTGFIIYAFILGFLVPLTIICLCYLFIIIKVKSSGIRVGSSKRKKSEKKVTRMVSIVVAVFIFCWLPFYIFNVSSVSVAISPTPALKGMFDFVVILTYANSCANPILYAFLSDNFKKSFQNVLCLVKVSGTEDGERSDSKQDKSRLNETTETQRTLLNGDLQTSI

IC50: 0.46 nM and 2.2 nM
Structure (SMILES): C[C@H](O)[C@@H]1NC(=O)[C@H](CCCCN)NC(=O)[C@@H](Cc2c[nH]c3ccccc23)NC(=O)[C@H](Cc2ccc(O)cc2)NC(=O)[C@@H](NC(=O)[C@@H](Cc2ccccc2)NC(=O)CN2CCN(CC(=O)O)CCN(CC(=O)O)CCN(CC(=O)O)CC2)CSSCC(C(=O)N[C@H](CO)[C@H](C)O)NC1=O (stereo partly specified)
